Laboratory results taken from patent US11795460B2, “Compositions and methods for TTR gene editing and treating ATTR amyloidosis” (Intellia Therapeutics, Inc., priority 2017, dated 2023).
Strand notation (5' to 3'): a small letter for the sugar, then the base; units joined by * are phosphorothioate-linked, units joined directly phosphodiester-linked; [ ] holds rarer units or linkages, { } end groups; capitals alone tell only the bases. m = 2'-O-methyl; r = 2'-OH (RNA)

B1: G000494: TTR sgRNA modified sequence, Human, SEQ ID No. 101; guide sequence of CR003360 (nucleic acid)
guide: mG*mU*mG*rArGrUrCrUrGrGrArGrArGrCrUrGrCrArUrGrUrUrUrUrArGrAmGmCmUmAmGmAmAmAmUmAmGmCrArArGrUrUrArArArArUrArArGrGrCrUrArGrUrCrCrGrUrUrArUrCrAmAmCmUmUmGmAmAmAmAmAmGmUmGmGmCmAmCmCmGmAmGmUmCmGmGmUmGmCmU*mU*mU*mU
B2: G000499: TTR sgRNA modified sequence, Human, SEQ ID No. 106; guide sequence of CR005303 (nucleic acid)
guide: mU*mG*mA*rArUrCrCrArArGrUrGrUrCrCrUrCrUrGrArGrUrUrUrUrArGrAmGmCmUmAmGmAmAmAmUmAmGmCrArArGrUrUrArArArArUrArArGrGrCrUrArGrUrCrCrGrUrUrArUrCrAmAmCmUmUmGmAmAmAmAmAmGmUmGmGmCmAmCmCmGmAmGmUmCmGmGmUmGmCmU*mU*mU*mU
B3: G000480: TTR sgRNA modified sequence, Human, SEQ ID No. 87; guide sequence of CR003353 (nucleic acid)
guide: mA*mA*mA*rGrGrCrUrGrCrUrGrArUrGrArCrArCrCrUrGrUrUrUrUrArGrAmGmCmUmAmGmAmAmAmUmAmGmCrArArGrUrUrArArArArUrArArGrGrCrUrArGrUrCrCrGrUrUrArUrCrAmAmCmUmUmGmAmAmAmAmAmGmUmGmGmCmAmCmCmGmAmGmUmCmGmGmUmGmCmU*mU*mU*mU
B4: G000489: TTR sgRNA modified sequence, Human, SEQ ID No. 96; guide sequence of CR003344 (nucleic acid)
guide: mU*mU*mU*rGrArCrCrArUrCrArGrArGrGrArCrArCrUrGrUrUrUrUrArGrAmGmCmUmAmGmAmAmAmUmAmGmCrArArGrUrUrArArArArUrArArGrGrCrUrArGrUrCrCrGrUrUrArUrCrAmAmCmUmUmGmAmAmAmAmAmGmUmGmGmCmAmCmCmGmAmGmUmCmGmGmUmGmCmU*mU*mU*mU
B5: G000481: TTR sgRNA modified sequence, Human, SEQ ID No. 88; guide sequence of CR003345 (nucleic acid)
guide: mU*mC*mU*rArGrArArCrUrUrUrGrArCrCrArUrCrArGrGrUrUrUrUrArGrAmGmCmUmAmGmAmAmAmUmAmGmCrArArGrUrUrArArArArUrArArGrGrCrUrArGrUrCrCrGrUrUrArUrCrAmAmCmUmUmGmAmAmAmAmAmGmUmGmGmCmAmCmCmGmAmGmUmCmGmGmUmGmCmU*mU*mU*mU
B6: G000482: TTR sgRNA modified sequence, Human, SEQ ID No. 89; guide sequence of CR003365 (nucleic acid)
guide: mU*mG*mU*rArGrArArGrGrGrArUrArUrArCrArArArGrGrUrUrUrUrArGrAmGmCmUmAmGmAmAmAmUmAmGmCrArArGrUrUrArArArArUrArArGrGrCrUrArGrUrCrCrGrUrUrArUrCrAmAmCmUmUmGmAmAmAmAmAmGmUmGmGmCmAmCmCmGmAmGmUmCmGmGmUmGmCmU*mU*mU*mU
B7: G000486: TTR sgRNA modified sequence, Human, SEQ ID No. 93; guide sequence of CR003339 (nucleic acid)
guide: mA*mC*mA*rCrArArArUrArCrCrArGrUrCrCrArGrCrArGrUrUrUrUrArGrAmGmCmUmAmGmAmAmAmUmAmGmCrArArGrUrUrArArArArUrArArGrGrCrUrArGrUrCrCrGrUrUrArUrCrAmAmCmUmUmGmAmAmAmAmAmGmUmGmGmCmAmCmCmGmAmGmUmCmGmGmUmGmCmU*mU*mU*mU
B8: G000488: TTR sgRNA modified sequence, Human, SEQ ID No. 95; guide sequence of CR003346 (nucleic acid)
guide: mA*mA*mA*rGrUrUrCrUrArGrArUrGrCrUrGrUrCrCrGrGrUrUrUrUrArGrAmGmCmUmAmGmAmAmAmUmAmGmCrArArGrUrUrArArArArUrArArGrGrCrUrArGrUrCrCrGrUrUrArUrCrAmAmCmUmUmGmAmAmAmAmAmGmUmGmGmCmAmCmCmGmAmGmUmCmGmGmUmGmCmU*mU*mU*mU

Columns and labels:
[1] = system: TTR; assay: TTR editing in HEK293_Cas9 cells transfected with dgRNAs (Table 4); format: cell-based, human; settings: HEK293_Cas9 cells (constitutively express Spy Cas9) transfected with dgRNAs
Experimental: HEK293 Cas9 cell line. The human embryonic kidney adenocarcinoma cell line HEK293 constitutively expressing Spy Cas9 (“HEK293_Cas9”) was cultured in DMEM media supplemented with 10% fetal bovine serum and 500 μg/ml G418. Cells were plated at a density of 10,000 cells/well in a 96-well plate 24 hours prior to transfection. Cells were transfected with Lipofectamine RNAiMAX (ThermoFisher, Cat. 13778150) per the manufacturer's protocol. Cells were transfected with a lipoplex containing individual crRNA (25 nM), trRNA (25 nM), Lipofectamine RNAiMAX (0.3 μL/well) and OptiMem.
Transfected cells were harvested post-transfection at 24, 48, or 72 hours. The genomic DNA was extracted from each well of a 96-well plate using 50 μL/well BuccalAmp DNA Extraction solution (Epicentre, Cat. QE09050) per manufacturer's protocol. All DNA samples were subjected to PCR and subsequent NGS analyses, as described herein.
To quantitatively determine the efficiency of editing at the target location in the genome, sequencing was utilized to identify the presence of insertions and deletions introduced by gene editing.
Primers were designed around the target site within the gene of interest (e.g. TTR), and the genomic area of interest was amplified.
Additional PCR was performed per the manufacturer's protocols (Illumina) to add chemistry for sequencing. The amplicons were sequenced on an Illumina MiSeq instrument. The reads were aligned to a reference genome (e.g., the human reference genome (hg38), the cynomologus reference genome (mf5), the rat reference genome (rn6), or the mouse reference genome (mm10)) after eliminating those having low quality scores. The resulting files containing the reads were mapped to the reference genome (BAM files), where reads that overlapped the target region of interest were selected and the number of wild type reads versus the number of reads which contain an insertion, substitution, or deletion was calculated.
The editing percentage (e.g., the “editing efficiency” or “percent editing” or “indel frequency”) is defined as the total number of sequence reads with insertions/deletions (“indels”) or substitutions over the total number of sequence reads, including wild type.
Guides in dgRNA format targeting human TTR and the cynomologus matched sequences were delivered to HEK293 Cas9, HUH7 and HepG2 cell lines, as well as primary human hepatocytes and primary cynomolgus monkey hepatocytes as described in Example 1. Percent editing was determined for crRNAs comprising each guide sequence across each cell type and the guide sequences were then rank ordered based on highest % edit. The screening data for the guide sequences in Table 1 in all five cell lines are listed below (Table 4 through 11).

[2] = system: TTR; assay: TTR editing in primary human hepatocytes transfected with Spy Cas9 mRNA and dgRNAs (Table 9); format: cell-based; settings: dgRNA co-transfected with Spy Cas9 mRNA (SEQ ID NO:2)
How it was run: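 PHH sequentially lipofected with Spy Cas9 mRNA (100 ng), then crRNA plus tracrRNA (25 nM each) dual-guide lipoplex. Cells harvested 24, 48 or 72 h post-transfection; TTR target amplicons sequenced on Illumina MiSeq, editing given as percent reads with indels or substitutions over total reads.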

[3] = system: off-target genomic sites; assay: Off-target oligo insertion based assay in HEK293_Cas9 cells, dgRNAs and sgRNAs (Tables 23, 24); format: cell-based, human; settings: for # Sites (off-target integration sites detected): Table 24, TTR sgRNAs in HekCas9 cells, insertion detection method; for # Sites in HekCas9 cells (Example 5): Table 30, TTR sgRNAs, repeated from Example 5 for comparison
Experimental: An oligo insertion based assay (See, e.g., Tsai et al., Nature Biotechnology 33, 187-197; 2015) was used to determine potential off-target genomic sites cleaved by Cas9 targeting TTR. Forty-five dgRNAs from Table 1 (and two control guides with known off-target profiles) were screened in the HEK293 Cas9 cells. The human embryonic kidney adenocarcinoma cell line HEK293 constitutively expressing Spy Cas9 (“HEK293_Cas9”) was cultured in DMEM media supplemented with 10% fetal bovine serum and 500 μg/ml G418. Cells were plated at a density of 30,000 cells/well in a 96-well plate 24 hours prior to transfection. Cells were transfected with Lipofectamine RNAiMAX (ThermoFisher, Cat. 13778150) per the manufacturer's protocol. Cells were transfected with a lipoplex containing individual crRNA (15 nM), trRNA (15 nM), and donor oligo with (10 nM) Lipofectamine RNAiMAX (0.3 μL/well) and OptiMem. Cells were lysed 24 hours post transfection and genomic DNA was extracting using Zymo's Quick gDNA 96 Extraction kit (catalog #D3012) following the manufacturer's recommended protocol. The gDNA was quantified using the Qubit High Sensitivity dsDNA kit (Life Technologies). Libraries were prepared per the previously described method in Tsai et al, 2015 with minor modifications. Sequencing was performed on Illumina's MiSeq and HiSeq 2500. The assay identified potential off-target sites for some of the crRNAs which are plotted in FIG. 2.
Additionally, a subset of the guides was assessed for off-target potential as modified sgRNAs in the Hek_Cas9 cells via the oligo based insertion method described above. The off-target results were plotted in FIG. 4.

Row | Molecule | Avg % Deletion [1] [%] | Avg % Edit [1] [%] | Avg % Insert [1] [%] | Avg % Deletion [2] [%] | Avg % Edit [2] [%] | Avg % Insert [2] [%] | # Sites (off-target integration sites detected) [3] | # Sites in HekCas9 cells (Example 5) [3]
1 | ACCUCUGCAUGCUCAUGGAA (tested as dual guide RNA, chemistry not given here) [CR003371] | 21.76 | 25.60 | 3.84 | 0.73 | 3.40 | 2.67 | – | –
2 | UACUCACCUCUGCAUGCUCA (tested as dual guide RNA, chemistry not given here) [CR003372] | 11.99 | 15.24 | 3.25 | 0.63 | 1.77 | 1.13 | – | –
3 | CCUCUGCAUGCUCAUGGAAU (tested as dual guide RNA, chemistry not given here) [CR003370] | 29.73 | 34.22 | 4.49 | 0.50 | 2.83 | 2.33 | – | –
4 | GCAUGGGCUCACAACUGAGG (tested as dual guide RNA, chemistry not given here) [CR003362] | 8.41 | 9.90 | 1.48 | 0.47 | 6.60 | 6.17 | – | –
5 | AAUAGGAGUAGGGGCUCAGC (tested as dual guide RNA, chemistry not given here) [CR003384] | 16.00 | 17.45 | 1.45 | 0.20 | 1.70 | 1.50 | – | –
6 | CUGGUAUUUGUGUCUGAGGC (tested as dual guide RNA, chemistry not given here) [CR003341] | 13.31 | 20.04 | 6.73 | 9.07 | 15.83 | 6.80 | – | –
7 | CUGAGGAGGAAUUUGUAGAA (tested as dual guide RNA, chemistry not given here) [CR003364] | 16.48 | 35.65 | 19.17 | 8.93 | 15.63 | 6.73 | – | –
8 | GCUGCAUGGGCUCACAACUG (tested as dual guide RNA, chemistry not given here) [CR003361] | 25.78 | 34.45 | 8.66 | 0.87 | 3.53 | 2.73 | – | –
9 | AUGCAGCUCUCCAGACUCAC (tested as dual guide RNA, chemistry not given here) [CR003358] | 4.14 | 5.44 | 1.29 | 1.17 | 3.90 | 2.73 | – | –
10 | B1 | – | – | – | – | – | – | 4 | 4
11 | B2 | – | – | – | – | – | – | 4 | 4
12 | B3 | – | – | – | – | – | – | 11 | 11
13 | B4 | – | – | – | – | – | – | 19 | 19
14 | B5 | – | – | – | – | – | – | 3 | 3
15 | B6 | – | – | – | – | – | – | 13 | 13
16 | B7 | – | – | – | – | – | – | 12 | 12
17 | B8 | – | – | – | – | – | – | 0 | 0
